Where “and” joins values, the source holds several entries; their conditions need not be identical. Equal values may be shown once. Inconclusive results and toxic doses are left out. How the source made its calls: active means survival T/C of 150% or more; inactive means T/C below 125% in these data.
System: P388 leukemia ip, CD2F1 mice, survival T/C
Assay: NCI In Vivo Anticancer Drug Screen. Data for tumor model P388 Leukemia (intraperitoneal) in CD2F1 (CDF1) mice
Details: endpoint: median survival time, higher = longer survival
Method in brief: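 Mice carrying the transplanted tumor received test compound or vehicle. Survival was recorded in each group, and the value is the treated-group measurement divided by that of the vehicle-treated control group.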

[1] = dose: 100.0 mg/kg/injection, schedule: Q04DX002 (ip), vehicle: saline with Tween-80
[2] = dose: 60.0 mg/kg/injection, schedule: Q01DX005 (ip), vehicle: Klucel (hydroxypropylcellulose) (HPC)
[3] = dose: 120.0 mg/kg/injection, schedule: Q01DX005 (ip), vehicle: Klucel (hydroxypropylcellulose) (HPC)
[4] = dose: 240.0 mg/kg/injection, schedule: Q01DX005 (ip), vehicle: Klucel (hydroxypropylcellulose) (HPC)
[5] = dose: 50.0 mg/kg/injection, schedule: Q01DX005 (ip), vehicle: Klucel (hydroxypropylcellulose) (HPC)
[6] = dose: 100.0 mg/kg/injection, schedule: Q01DX005 (ip), vehicle: Klucel (hydroxypropylcellulose) (HPC)
[7] = dose: 200.0 mg/kg/injection, schedule: Q01DX005 (ip), vehicle: Klucel (hydroxypropylcellulose) (HPC)
[8] = dose: 50.0 mg/kg/injection, schedule: Q01DX005 (ip), vehicle: saline with Tween-80
[9] = dose: 100.0 mg/kg/injection, schedule: Q01DX005 (ip), vehicle: saline with Tween-80
[10] = dose: 200.0 mg/kg/injection, schedule: Q01DX005 (ip), vehicle: saline with Tween-80
[11] = dose: 50.0 mg/kg/injection, schedule: Q01DX009 (ip), vehicle: saline with Tween-80
[12] = dose: 100.0 mg/kg/injection, schedule: Q01DX009 (ip), vehicle: saline with Tween-80
[13] = dose: 200.0 mg/kg/injection, schedule: Q01DX009 (ip), vehicle: saline with Tween-80

Measured: T/C

CC[C@@]12CN3CCc4c([nH]c5ccccc45)[C@@](C(=O)OC)(c4cc5c(cc4OC)N(C=O)[C@H]4[C@@](O)(C(=O)OC)[C@H](OC(C)=O)[C@]6(CC)C=CCN7CC[C@]54[C@@H]76)C[C@H](C3=O)[C@@H]1O2
inactive: dose: 4.0 mg/kg/injection, schedule: Q01DX001 (ip), vehicle: water 113 % of control and 118 % of control | dose: 8.0 mg/kg/injection, schedule: Q01DX001 (ip), vehicle: water 115 % of control and 116 % of control | dose: 32.0 mg/kg/injection, schedule: Q01DX001 (ip), vehicle: water 118 % of control

CC(=O)C1C(C=C(C)C)C1(C)C (stereo unspecified)
inactive: [1] 96 % of control | dose: 200.0 mg/kg/injection, schedule: Q04DX002 (ip), vehicle: saline with Tween-80 106 % of control | dose: 400.0 mg/kg/injection, schedule: Q04DX002 (ip), vehicle: saline with Tween-80 101 % of control

O=C1OC(O)c2cccc3cccc1c23 (stereo unspecified)
inactive: [2] 98 % of control | [3] 100 % of control | [4] 94 % of control

COc1ccc(/C=N/Nc2nnc3c4ccccc4c4ccccc4c3n2)cc1OC
inactive: dose: 50.0 mg/kg/injection, schedule: Q04DX002 (ip), vehicle: suspension in saline 86 % of control | dose: 100.0 mg/kg/injection, schedule: Q04DX002 (ip), vehicle: suspension in saline 89 % of control | dose: 200.0 mg/kg/injection, schedule: Q04DX002 (ip), vehicle: suspension in saline 90 % of control

CCOC(=O)C1=C(N)OC(c2ccccc2)=C(C#N)C1c1ccc(C)cc1 (stereo unspecified)
inactive: [5] 110 % of control | [6] 107 % of control | [7] 100 % of control

Cc1ccc2c(O)c3c(cc2c1O)C(=O)c1ccccc1C3=O
inactive: [8] 100 % of control | [9] 107 % of control | [10] 109 % of control

O=S(=O)(Cc1ccccc1)/N=C/c1ccccc1
inactive: [11] 103 % of control and 105 % of control | [12] 99 % of control and 105 % of control | [13] 107 % of control and 123 % of control

CN(C)c1ccc(NC(=O)c2ccccc2O)cc1
inactive: [11] 113 % of control | [12] 104 % of control | [13] 99 % of control

NCCN.NCCN.NCCN.[Cl-].[Pt]
inactive: dose: 1.56 mg/kg/injection, schedule: Q01DX009 (ip), vehicle: saline 101 % of control | dose: 3.13 mg/kg/injection, schedule: Q01DX009 (ip), vehicle: saline 101 % of control | dose: 6.25 mg/kg/injection, schedule: Q01DX009 (ip), vehicle: saline 107 % of control | dose: 12.5 mg/kg/injection, schedule: Q01DX009 (ip), vehicle: saline 99 % of control

CSC(=S)/N=c1/sccn1C
inactive: dose: 25.0 mg/kg/injection, schedule: Q04DX002 (ip), vehicle: saline with Tween-80 100 % of control | dose: 50.0 mg/kg/injection, schedule: Q04DX002 (ip), vehicle: saline with Tween-80 100 % of control | [1] 99 % of control

CCCCCCCCCCOC(=O)c1ccccc1
inactive: dose: 50.0 mg/kg/injection, schedule: Q01DX009 (ip), vehicle: Klucel (hydroxypropylcellulose) (HPC) 98 % of control | dose: 100.0 mg/kg/injection, schedule: Q01DX009 (ip), vehicle: Klucel (hydroxypropylcellulose) (HPC) 93 % of control | dose: 200.0 mg/kg/injection, schedule: Q01DX009 (ip), vehicle: Klucel (hydroxypropylcellulose) (HPC) 98 % of control

FC(F)(F)c1nc2nccnc2[nH]1
inactive: dose: 50.0 mg/kg/injection, schedule: Q04DX003 (ip), vehicle: saline 100 % of control | dose: 100.0 mg/kg/injection, schedule: Q04DX003 (ip), vehicle: saline 100 % of control | dose: 200.0 mg/kg/injection, schedule: Q04DX003 (ip), vehicle: saline 100 % of control

COC(=O)c1cc(OC)cc(C)c1OC(=Nc1cccc(Cl)c1C)c1ccccc1
inactive: [5] 97 % of control | [6] 92 % of control | [7] 96 % of control

Nc1ccc2c(Cl)cc(Cl)cc2c1
inactive: [11] 100 % of control | [12] 104 % of control

O=C1CSC(c2cccs2)N1c1nccs1 (stereo unspecified)
inactive: [5] 102 % of control | [6] 106 % of control | [7] 100 % of control

COCCCN1CNC(=S)NC1
inactive: [8] 101 % of control | [9] 100 % of control | [10] 101 % of control

CON/C=C(C#N)/C=C/C=Nc1ccc(S(=O)(=O)Nc2onc(C)c2C)cc1
inactive: [11] 100 % of control | [12] 92 % of control | [13] 98 % of control

CC(=O)C(/C=N\N=C(/C)c1cn[nH]c1C)=C(/C)O
inactive: [2] 96 % of control | [3] 92 % of control | [4] 89 % of control

COc1ccc2c(c1)[C@@]13CCCC[C@H]1[C@H](N(C)CC3)C21CC1
inactive: dose: 100.0 mg/kg/injection, schedule: Q01DX001 (ip), vehicle: Klucel (hydroxypropylcellulose) (HPC) 97 % of control | dose: 200.0 mg/kg/injection, schedule: Q01DX001 (ip), vehicle: Klucel (hydroxypropylcellulose) (HPC) 102 % of control

O=[N+]([O-])c1cc(F)ccc1O
inactive: dose: 6.25 mg/kg/injection, schedule: Q01DX009 (ip), vehicle: saline with Tween-80 95 % of control | dose: 12.5 mg/kg/injection, schedule: Q01DX009 (ip), vehicle: saline with Tween-80 100 % of control | dose: 25.0 mg/kg/injection, schedule: Q01DX009 (ip), vehicle: saline with Tween-80 104 % of control

COc1ccc2c(c1)C1(C)CCCC(C)(COC(C)=O)C1CC2 (stereo unspecified)
inactive: dose: 7.5 mg/kg/injection, schedule: Q01DX009 (ip), vehicle: saline with Tween-80 91 % of control | dose: 15.0 mg/kg/injection, schedule: Q01DX009 (ip), vehicle: saline with Tween-80 91 % of control | dose: 30.0 mg/kg/injection, schedule: Q01DX009 (ip), vehicle: saline with Tween-80 89 % of control

COc1ccc(C(c2cc3c(cc2O)OCO3)N2CCN(C(c3ccc(OC)c(OC)c3)c3cc4c(cc3O)OCO4)CC2)cc1OC (stereo unspecified)
inactive: [2] 89 % of control | [3] 90 % of control | [4] 105 % of control

O=C(CNC(=O)Nc1ccc(NC(=O)NCC(=O)Nc2ccc(C3=NCCN3)cc2)cc1)Nc1ccc(C2=NCCN2)cc1
inactive: dose: 50.0 mg/kg/injection, schedule: Q01DX009 (ip), vehicle: saline 105 % of control and 106 % of control | dose: 100.0 mg/kg/injection, schedule: Q01DX009 (ip), vehicle: saline 93 % of control | dose: 200.0 mg/kg/injection, schedule: Q01DX009 (ip), vehicle: saline 111 % of control and 97 % of control

Cc1[nH]c(=O)[nH]c(=O)c1/C=C/C(=O)NC(CO)CS(=O)Cc1ccccc1 (stereo unspecified)
inactive: dose: 0.07 mg/kg/injection, schedule: Q01DX009 (ip), vehicle: water 100 % of control | dose: 0.15 mg/kg/injection, schedule: Q01DX009 (ip), vehicle: water 102 % of control | dose: 0.3 mg/kg/injection, schedule: Q01DX009 (ip), vehicle: water 100 % of control | dose: 0.6 mg/kg/injection, schedule: Q01DX009 (ip), vehicle: water 103 % of control | dose: 2.0 mg/kg/injection, schedule: Q01DX009 (ip), vehicle: other 114 % of control | dose: 4.0 mg/kg/injection, schedule: Q01DX009 (ip), vehicle: other 118 % of control | dose: 8.0 mg/kg/injection, schedule: Q01DX009 (ip), vehicle: other 122 % of control | dose: 16.0 mg/kg/injection, schedule: Q01DX009 (ip), vehicle: other 118 % of control | dose: 32.0 mg/kg/injection, schedule: Q01DX009 (ip), vehicle: other 99 % of control and 108 % of control | dose: 64.0 mg/kg/injection, schedule: Q01DX009 (ip), vehicle: other 103 % of control | dose: 128.0 mg/kg/injection, schedule: Q01DX009 (ip), vehicle: other 98 % of control | dose: 200.0 mg/kg/injection, schedule: Q01DX009 (ip), vehicle: other 92 % of control | dose: 256.0 mg/kg/injection, schedule: Q01DX009 (ip), vehicle: other 100 % of control | dose: 300.0 mg/kg/injection, schedule: Q01DX009 (ip), vehicle: other 90 % of control | dose: 400.0 mg/kg/injection, schedule: Q01DX009 (ip), vehicle: other 93 % of control

FC(F)(F)C1=C(C(F)(F)F)OP2(Oc3ccccc3)(O1)Oc1ccccc1O2
inactive: dose: 25.0 mg/kg/injection, schedule: Q04DX003 (ip), vehicle: suspension in saline 102 % of control | dose: 50.0 mg/kg/injection, schedule: Q04DX003 (ip), vehicle: suspension in saline 101 % of control | dose: 100.0 mg/kg/injection, schedule: Q04DX003 (ip), vehicle: suspension in saline 97 % of control

— PubChem BioAssay AID330 (DTP/NCI, 2004)
